Measurements as given in US20250295657A1, “Methods and Compositions for Treatment of Inflammation and Inflammatory Conditions” (University of Pittsburgh - Of the Commonwealth System of …, priority 2022, published 2025).

System: pseudotyped SARS-CoV-2 (D614G Spike)
Format: cell-based

O=C(OCc1cc(=O)oc2cc(O)c(O)cc12)c1nn(-c2ccccc2)c(=O)c2ccccc12 [compound 958]
pseudotyped SARS-CoV-2 infection (D614G Spike): prevent pseudotyped SARS-CoV-2 infection
